Values of other authors, collected in paper PMC9034292 (The Journal of Biological Chemistry, 2022).

What was measured:
[1] = test system: HIV-1 RT–associated RNase H
[2] = one divalent cation-coordinating ion

Compound: CC(C)c1ccc(O)c(=O)c(O)c1 [β-thujaplicinol]
- Inhibition of HIV RNase H [1]: inhibits
- Manner of inhibition of HIV-1 RT–associated RNase H [1]: reversible noncompetitive
- Inhibition of HBV RNase H (HBV RNase H): inhibits

Compound: dihydroxytropylium ion
- Kd [2]: 150 µM
- logK (stability constant) [2]: 3.82
